Reference: patent US12419887B2, “Transitioning patients treated for pulmonary arterial hypertension to selexipag” (ACTELION PHARMACEUTICALS LTD, priority 2019, dated 2025)

Columns and labels:
Assay type in all cases: in vivo, human
[1] = system: patients being treated for pulmonary arterial hypertension transitioned from a non-selexipag PPA; assay: Change from baseline in assessed risk category after transition to selexipag
From the text: (§1) Assessments performed closest to selexipag initiation were considered to be “baseline.” Data at 6 and 12 months post-baseline were as follows (i) the window for the 6-month measurements was >0 months and <9 months; (ii) the window for the 12-month measurements was ≥9 months and <16 months; and (iii) the assessment closest to the 6- or 12-month time point, respectively, was used.
Risk categories were assigned. Seven variables were used: World Health Organization or New York Heart Association functional class (FC), 6-minute walk distance (6MWD), N-terminal prohormone of brain natriuretic peptide (NT-proBNP), brain natriuretic peptide (BNP), and hemodynamic parameters, including right atrial pressure, cardiac index, and mixed venous oxygen saturation. If both NT-proBNP and BNP were available, the risk classification of each value was averaged together and the mean was used in the risk categorization. Thresholds from the 2015 European Society of Cardiology/European Respiratory Society Guidelines were applied to assign a risk score for each available variable: 1=low risk, 2=intermediate risk, and 3=high risk. The risk score from all available variables was then averaged. The resulting number was rounded to the nearest integer to produce the patient's individual risk category: 1=low risk, 2=intermediate risk, and 3=high risk

[2] = system: patients being treated for pulmonary arterial hypertension transitioned from a non-selexipag PPA; assay: Change in WHO/NYHA functional class (FC) from baseline after transition to selexipag; conditions: for patients with worsened FC / patients with improved FC: all transitioned patients
From the text: (§2) In this example, the effectiveness of transitioning patients from a non-selexipag PPA to selexipag was investigated. Patients were followed for up to 18 months and data were collected at the time of initiation, enrollment, and approximately quarterly post-enrollment. Eligible patients were aged ≥18 years and either newly initiated on selexipag at the time of enrollment or were already receiving selexipag and have a documented titration regimen.
(§3) “Transitioned patients” were defined as patients who were (i) taking a non-selexipag PPA for ≥30 days at the time of selexipag initiation who stopped the initial agent ≤7 days before selexipag initiation; or (ii) continued taking the initial, non-selexipag PPA when they initiated selexipag and gradually transitioned off that agent.
as §1

[3] = system: patients being treated for pulmonary arterial hypertension transitioned from a non-selexipag PPA; assay: Change from baseline in 6-minute walk distance (6MWD) after transition to selexipag
From the text: as §2, §3, §1

[4] = system: patients being treated for pulmonary arterial hypertension; assay: Safety: selexipag discontinuation and adverse events leading to discontinuation
From the text: as §2
AEs known to be associated with the selexipag mechanism of action were only reported if they were serious, led to selexipag discontinuation, or reflected an unusual pattern of severity.
Safety data were collected only for the period during which patients were enrolled. The median total duration of selexipag treatment on study was 13.7 months (IQR: 9.1-17.8 months) for all patients: 13.8 months (IQR: 9.2-17.8 months) for patients in the inhaled/oral group and 13.4 months (IQR: 6.8-15.9 months) for patients in the parenteral group.

[5] = transitioned from oral/inhaled non-selexipag PPA, 6 months
[6] = transitioned from oral/inhaled non-selexipag PPA, 12 months
[7] = transitioned from parenteral non-selexipag PPA, 6 months
[8] = transitioned from parenteral non-selexipag PPA, 12 months

Compound: CC(C)N(CCCCOCC(=O)NS(C)(=O)=O)c1cnc(-c2ccccc2)c(-c2ccccc2)n1 [selexipag, 2-{4-[(5,6-diphenylpyrazin-2-yl)(propan-2-yl)amino]butoxy}-N-(methanesulfonyl)acetamide]
- patients with improved risk status [1, 5]: 21%
- patients with maintained risk status [1, 5]: 63%
- patients with worsened risk status [1, 5]: 17%
- patients with improved FC (in the risk status paragraph) [1, 6]: 24%
- patients with maintained risk status [1, 6]: 61%
- patients with worsened FC (in the risk status paragraph) [1, 6]: 15%
- patients with improved risk status [1, 7]: 27%
- patients with maintained or improved risk status [1, 7]: 67%
- patients with maintained risk status [1, 7]: 40%
- patients with worsened risk status [1, 7]: 33%
- patients with improved risk status [1, 8]: 29%
- patients with maintained or improved risk status [1, 8]: 86%
- patients with maintained risk status [1, 8]: 57%
- patients with worsened risk status [1, 8]: 14%
- disease course in the majority of patients as indicated by FC, 6MWD, and risk status ([2]; 12 months after transitioning, regardless of type of prior non-selexipag PPA): unchanged or improved disease
- patients with worsened FC ([2]; 6 months vs baseline): none
- patients with improved FC ([2]; 6 months vs baseline, data for 46% of patients): 27%
- patients with worsened FC ([2]; 12 months vs baseline): 10%
- patients with improved FC ([2]; 12 months vs baseline, data for 70% of patients): 21%
- FC versus baseline ([2]; transitioned patients, at 6 and 12 months): maintained in the majority of transitioned patients
- 6MWD versus baseline ([3]; all patients, 12 months): modest increase in 6MWD
- 6MWD versus baseline ([3]; transitioned from oral/inhaled PPA, 6 months): increased 6MWD
- median 6MWD versus baseline [3, 7]: decreased median 6MWD from baseline
- AE leading to selexipag discontinuation: Acute respiratory failure, % ([4]; All Patients (N = 56)): (1.8) %
- AE leading to selexipag discontinuation: Arthralgia, % ([4]; All Patients (N = 56)): (1.8) %
- AE leading to selexipag discontinuation: Cardiac arrest, % ([4]; All Patients (N = 56)): (1.8) %
- AE leading to selexipag discontinuation: Cardiac disorders, % ([4]; All Patients (N = 56)): (7.1) %
- AE leading to selexipag discontinuation: Cardiac failure congestive, % ([4]; All Patients (N = 56)): (1.8) %
- AE leading to selexipag discontinuation: Fluid overload, % ([4]; All Patients (N = 56)): (1.8) %
- AE leading to selexipag discontinuation: Headache, % ([4]; All Patients (N = 56)): (1.8) %
- AE leading to selexipag discontinuation: Investigations, % (Right ventricular systolic pressure) ([4]; All Patients (N = 56)): (1.8) %
- AE leading to selexipag discontinuation: Investigations, n (Right ventricular systolic pressure) ([4]; All Patients (N = 56)): 1 n
- AE leading to selexipag discontinuation: Musculoskeletal and connective tissue disorders, % ([4]; All Patients (N = 56)): (1.8) %
- AE leading to selexipag discontinuation: Nervous system disorders, % ([4]; All Patients (N = 56)): (1.8) %
- AE leading to selexipag discontinuation: Respiratory failure, % ([4]; All Patients (N = 56)): (1.8) %
- AE leading to selexipag discontinuation: Respiratory, thoracic and mediastinal disorders, % ([4]; All Patients (N = 56)): (8.9) %
- AE leading to selexipag discontinuation: Right ventricular failure, % ([4]; All Patients (N = 56)): (1.8) %
- AE leading to selexipag discontinuation: Right ventricular systolic pressure increased, % ([4]; All Patients (N = 56)): (1.8) %
- AE leading to selexipag discontinuation: Worsening pulmonary hypertension, % ([4]; All Patients (N = 56)): (5.4) %
- AE leading to selexipag discontinuation: Acute respiratory failure, % ([4]; Inhaled/Oral (n = 36)): 2.8%
- AE leading to selexipag discontinuation: Arthralgia, % ([4]; Inhaled/Oral (n = 36)): 2.8%
- AE leading to selexipag discontinuation: Cardiac arrest, % ([4]; Inhaled/Oral (n = 36)): 2.8%
- AE leading to selexipag discontinuation: Cardiac disorders, % ([4]; Inhaled/Oral (n = 36)): 5.6%
- AE leading to selexipag discontinuation: Cardiac failure congestive, % ([4]; Inhaled/Oral (n = 36)): 2.8%
- AE leading to selexipag discontinuation: Headache, % ([4]; Inhaled/Oral (n = 36)): 2.8%
- AE leading to selexipag discontinuation: Investigations, n (Right ventricular systolic pressure) ([4]; Inhaled/Oral (n = 36)): 0 n
- AE leading to selexipag discontinuation: Musculoskeletal and connective tissue disorders, % ([4]; Inhaled/Oral (n = 36)): 2.8%
- AE leading to selexipag discontinuation: Nervous system disorders, % ([4]; Inhaled/Oral (n = 36)): 2.8%
- AE leading to selexipag discontinuation: Patients with at least one AE, % ([4]; Inhaled/Oral (n = 36)): 16.7%
- AE leading to selexipag discontinuation: Respiratory failure, % ([4]; Inhaled/Oral (n = 36)): 2.8%
- AE leading to selexipag discontinuation: Respiratory, thoracic and mediastinal disorders, % ([4]; Inhaled/Oral (n = 36)): 5.6%
- AE leading to selexipag discontinuation: Cardiac disorders, % ([4]; Parenteral (n = 20)): (10.0) %
- AE leading to selexipag discontinuation: Fluid overload, % ([4]; Parenteral (n = 20)): (5.0) %
- AE leading to selexipag discontinuation: Investigations, % (Right ventricular systolic pressure) ([4]; Parenteral (n = 20)): (5.0) %
- AE leading to selexipag discontinuation: Investigations, n (Right ventricular systolic pressure) ([4]; Parenteral (n = 20)): 1 n
- AE leading to selexipag discontinuation: Respiratory, thoracic and mediastinal disorders, % ([4]; Parenteral (n = 20)): (15.0) %
- AE leading to selexipag discontinuation: Right ventricular failure, % ([4]; Parenteral (n = 20)): (5.0) %
- AE leading to selexipag discontinuation: Right ventricular systolic pressure increased, % ([4]; Parenteral (n = 20)): (5.0) %
- AE leading to selexipag discontinuation: Worsening pulmonary hypertension, % ([4]; Parenteral (n = 20)): (15.0) %
- patients who discontinued selexipag ([4]; non-transitioned patients (65 of 194)): 33.5%
- patients who discontinued selexipag ([4]; transitioned patients (16 of 56)): 28.6%
